The values that follow come from publication PMC9239059, “Structure-Guided Synthesis of FK506 and FK520 Analogs with Increased Selectivity Exhibit In Vivo Therapeutic Efficacy against Cryptococcus” (mBio, 2022).

Structures are written as SMILES. ≈ marks a conversion by molar mass, not a printed value.

Assay [1] addresses T1, FKBP12 (Candida albicans, UniProt C4YFI3+C4YS24+P28870).
T1 construct: gene RBP1; biotinylated (Avi-tagged) FKBP12; with CnA-CnB-calmodulin
In words: BLI, compound-mediated ternary complex formation, […] compound. In kind it is binding. In general terms: In BLI a coated tip is dipped into the sample, and binding shifts an interference pattern.

In assay [2] the target is T2, FKBP12 (Aspergillus fumigatus, UniProt Q4WLV6).
T2 construct: gene fpr1A; biotinylated (Avi-tagged) FKBP12; with CnA-CnB-calmodulin
T2 sequence (Q4WLV6 whole entry): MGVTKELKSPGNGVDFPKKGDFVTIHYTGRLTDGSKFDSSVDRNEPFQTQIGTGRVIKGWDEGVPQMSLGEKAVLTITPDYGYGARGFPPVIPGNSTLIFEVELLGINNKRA
T2 sequence (Q4WUR1 whole entry partner): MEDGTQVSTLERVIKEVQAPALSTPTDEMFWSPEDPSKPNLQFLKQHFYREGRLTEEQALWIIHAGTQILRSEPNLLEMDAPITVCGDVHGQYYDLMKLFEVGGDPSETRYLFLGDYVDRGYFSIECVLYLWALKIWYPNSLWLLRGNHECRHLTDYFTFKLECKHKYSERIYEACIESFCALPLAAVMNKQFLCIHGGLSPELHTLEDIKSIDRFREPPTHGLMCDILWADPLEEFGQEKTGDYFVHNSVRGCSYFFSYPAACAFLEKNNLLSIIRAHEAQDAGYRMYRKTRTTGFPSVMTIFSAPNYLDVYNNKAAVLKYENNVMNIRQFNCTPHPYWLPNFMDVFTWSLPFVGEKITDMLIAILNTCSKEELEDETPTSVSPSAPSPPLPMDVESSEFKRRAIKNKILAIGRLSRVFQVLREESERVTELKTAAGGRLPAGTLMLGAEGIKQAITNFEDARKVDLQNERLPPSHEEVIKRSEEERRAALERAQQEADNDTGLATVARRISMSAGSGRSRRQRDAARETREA
Described as above. In kind it is binding.

Assay [3] concerns T3, Aspergillus fumigatus F14946.
T3 construct: F14946
Nature of the assay: microbe, parasite or virus in culture. To be noted: F14946, MIC/MEC, azole-resistant strain. Details: species or system Aspergillus fumigatus and other molds; modified CLSI M38-A2 broth microdilution in RPMI 1640, mold growth inhibition (MIC/MEC). The protocol:
(§1) In vitro antifungal activities of FK506, FK520, and analogs were assessed in RPMI 1640 (Sigma-Aldrich) for all strains tested. MICs/minimum effective concentrations (MECs) for each drug were measured using modified Clinical and Laboratory Standards Institute (CLSI) M38-A2 and M27-A3 standard in vitro antifungal susceptibility protocols. Broth microdilution assays for MIC/MEC assessment were performed as described previously ([33]). All antifungal assays with C. neoformans were performed at 37°C. Antifungal susceptibility testing for C. albicans was performed in the presence of a uniform 1 μg/mL concentration of fluconazole to sensitize the organism to calcineurin inhibition. MICs/minimum effective concentrations (MECs) were determined for each of the novel analogs against the three major human fungal pathogens, A. fumigatus, C. neoformans, and C. albicans. […] Thus, analogs of FK506 and FK520 can tolerate up to 100-fold reduction in antifungal activity and still be considered for in vivo testing. For C. neoformans, MICs were the most uniform and ranged from 0.2 to 2 μg/mL, which is between 4- and 40-fold reduced for antifungal activity. C. albicans MICs ranged from 0.2 to 6.25 μg/mL, which is between 10- and 312.5-fold reduced for activity. Despite being one of the most difficult to treat fungal infections, all six analogs were active against A. fumigatus with MECs ranging from 1 to 2 μg/mL or a 62.5- to 125-fold reduction in activity. Two FK520 analogs, JH-FK-05 and JH-FK-07, maintained high levels of broad-spectrum antifungal activity across the three species, and JH-FK-07 had the lowest MICs for both C. neoformans and C. albicans. To assess the antifungal activity against other human fungal pathogens, we selected JH-FK-05 to test against a panel of pathogenic molds and drug-resistant A. fumigatus strains (Table S3). JH-FK-05 registered MECs as low as 1 μg/mL for some of these highly recalcitrant species, such as Mucor circinelloides, Rhizopus oryzae, and pan azole-resistant A. fumigatus (strain F14946).

The test system of assay [4] is Mucor circinelloides. In words: microbe, parasite or virus in culture. Conditions: Mucor circinelloides; MIC/MEC. Also on record: species or system Aspergillus fumigatus and other molds; modified CLSI M38-A2 broth microdilution in RPMI 1640, mold growth inhibition (MIC/MEC). The protocol:
as §1

For assay [5], the system named is Aspergillus niger. In words: microbe, parasite or virus in culture. To be noted: Aspergillus niger; MIC/MEC. Also on record: species or system Aspergillus fumigatus and other molds; modified CLSI M38-A2 broth microdilution in RPMI 1640, mold growth inhibition (MIC/MEC). The protocol: as §1
In assay [6] the test system is Scedosporium prolificans. In words: microbe, parasite or virus in culture. Also on record: species or system Aspergillus fumigatus and other molds; modified CLSI M38-A2 broth microdilution in RPMI 1640, mold growth inhibition (MIC/MEC). Conditions: Lomentospora prolificans; MIC/MEC. How it is done:
as §1

Assay [7] concerns T4, Aspergillus fumigatus F12776.
T4 construct: F12776
Nature of the assay: microbe, parasite or virus in culture. Details: species or system Aspergillus fumigatus and other molds; modified CLSI M38-A2 broth microdilution in RPMI 1640, mold growth inhibition (MIC/MEC). Conditions: F12776, MIC/MEC, azole-resistant strain. The protocol: as §1

Assay [8] relates to Aspergillus terreus. In words: microbe, parasite or virus in culture. Also on record: species or system Aspergillus fumigatus and other molds; modified CLSI M38-A2 broth microdilution in RPMI 1640, mold growth inhibition (MIC/MEC). Conditions: Aspergillus terreus; MIC/MEC. How it is done:
as §1

Assay [9] has as its system T5, Aspergillus fumigatus F16216.
T5 construct: F16216
In words: microbe, parasite or virus in culture. Details: species or system Aspergillus fumigatus and other molds; modified CLSI M38-A2 broth microdilution in RPMI 1640, mold growth inhibition (MIC/MEC). Conditions: F16216, MIC/MEC, azole-resistant strain. The protocol: as §1

Assay [10] has as its system Rhizomucor pusilus. In words: microbe, parasite or virus in culture. Also on record: species or system Aspergillus fumigatus and other molds; modified CLSI M38-A2 broth microdilution in RPMI 1640, mold growth inhibition (MIC/MEC). To be noted: Rhizomucor; MIC/MEC. How it is done: as §1
Assay [11] has as its system T6, Aspergillus fumigatus F16314.
T6 construct: F16314
In words: microbe, parasite or virus in culture. To be noted: F16314, MIC/MEC, azole-resistant strain. Also on record: species or system Aspergillus fumigatus and other molds; modified CLSI M38-A2 broth microdilution in RPMI 1640, mold growth inhibition (MIC/MEC). How it is done:
as §1

Assay [12] deals with Scedosporium apiospermum. In words: microbe, parasite or virus in culture. Details: species or system Aspergillus fumigatus and other molds; modified CLSI M38-A2 broth microdilution in RPMI 1640, mold growth inhibition (MIC/MEC). To be noted: Scedosporium apiospermum; MIC/MEC. The protocol:
as §1

Assay [13] concerns Aspergillus flavus. Nature of the assay: microbe, parasite or virus in culture. Details: species or system Aspergillus fumigatus and other molds; modified CLSI M38-A2 broth microdilution in RPMI 1640, mold growth inhibition (MIC/MEC). Conditions: Aspergillus flavus; MIC/MEC. The protocol:
as §1

Assay [14] concerns T7, Aspergillus fumigatus (Wild-type) (akuBKu80).
T7 construct: akuBKu80
Nature of the assay: microbe, parasite or virus in culture. To be noted: MIC/MEC. Also on record: species or system Aspergillus fumigatus and other molds; modified CLSI M38-A2 broth microdilution in RPMI 1640, mold growth inhibition (MIC/MEC). The protocol:
as §1

In assay [15] the test system is T8, Aspergillus fumigatus F7075.
T8 construct: F7075
In words: microbe, parasite or virus in culture. Details: species or system Aspergillus fumigatus and other molds; modified CLSI M38-A2 broth microdilution in RPMI 1640, mold growth inhibition (MIC/MEC). Conditions: F7075, MIC/MEC, azole-resistant strain. How it is done: as §1

Assay [16] has as its system Paecilomyces variotti. Nature of the assay: microbe, parasite or virus in culture. Details: species or system Aspergillus fumigatus and other molds; modified CLSI M38-A2 broth microdilution in RPMI 1640, mold growth inhibition (MIC/MEC). Conditions: Paecilomyces; MIC/MEC. The protocol:
as §1

Assay [17] has as its system Rhizopus oryzae. Nature of the assay: microbe, parasite or virus in culture. Details: species or system Aspergillus fumigatus and other molds; modified CLSI M38-A2 broth microdilution in RPMI 1640, mold growth inhibition (MIC/MEC). Conditions: Rhizopus arrhizus; MIC/MEC. How it is done: as §1
The test system of assay [18] is T9, Cryptococcus neoformans (H99).
T9 construct: H99
In words: microbe, parasite or virus in culture. To be noted: Cryptococcus neoformans, read-out: MIC (μg/mL) against: / Cryptococcus neoformans (H99)^a. Also on record: CLSI M27-A3 broth microdilution in RPMI 1640 at 37 C, growth inhibition of C. neoformans (MIC). How it is done: as §1, with “activity.” for “activity. Two FK520 analogs, JH-FK-05 and JH-FK-07, maintained high levels of broad-spectrum antifungal activity across the three species, and JH-FK-07 had the lowest MICs for both C. neoformans and C. albicans. To assess the antifungal activity against other human fungal pathogens, we selected JH-FK-05 to test against a panel of pathogenic molds and drug-resistant A. fumigatus strains (Table S3). JH-FK-05 registered MECs as low as 1 μg/mL for some of these highly recalcitrant species, such as Mucor circinelloides, Rhizopus oryzae, and pan azole-resistant A. fumigatus (strain F14946).”

T1 sequence (P28870 whole entry): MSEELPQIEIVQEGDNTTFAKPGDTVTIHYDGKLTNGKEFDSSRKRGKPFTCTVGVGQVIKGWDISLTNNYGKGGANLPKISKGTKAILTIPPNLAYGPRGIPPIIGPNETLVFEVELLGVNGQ
T1 sequence (C4YFI3 54-445): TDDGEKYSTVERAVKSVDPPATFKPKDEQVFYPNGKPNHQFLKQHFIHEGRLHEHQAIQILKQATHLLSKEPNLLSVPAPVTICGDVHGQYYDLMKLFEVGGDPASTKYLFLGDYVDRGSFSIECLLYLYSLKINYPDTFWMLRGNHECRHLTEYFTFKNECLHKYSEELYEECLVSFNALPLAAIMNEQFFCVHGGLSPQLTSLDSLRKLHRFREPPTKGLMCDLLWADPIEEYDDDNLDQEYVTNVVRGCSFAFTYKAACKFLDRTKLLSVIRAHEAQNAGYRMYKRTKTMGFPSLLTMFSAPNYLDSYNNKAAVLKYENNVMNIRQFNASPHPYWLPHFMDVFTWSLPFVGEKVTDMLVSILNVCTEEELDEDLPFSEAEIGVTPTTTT
T1 sequence (C4YS24 1-173): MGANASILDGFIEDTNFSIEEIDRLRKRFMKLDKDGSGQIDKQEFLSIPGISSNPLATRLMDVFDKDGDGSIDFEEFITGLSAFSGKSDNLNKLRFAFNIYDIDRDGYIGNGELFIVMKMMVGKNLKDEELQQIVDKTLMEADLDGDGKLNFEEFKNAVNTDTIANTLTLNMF
T1 sequence (P23286 whole entry partner): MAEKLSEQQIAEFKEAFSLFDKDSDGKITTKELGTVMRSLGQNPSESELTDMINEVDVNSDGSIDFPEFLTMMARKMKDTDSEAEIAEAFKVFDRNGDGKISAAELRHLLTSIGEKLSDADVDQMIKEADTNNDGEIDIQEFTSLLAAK

On to `CC[C@@H]1/C=C(\C)C[C@H](C)C[C@H](OC)[C@H]2O[C@@](O)(C(=O)C(=O)N3CCCC[C@H]3C(=O)O[C@H](/C(C)=C/[C@@H]3CC[C@@H](O)[C@H](OC)C3)[C@H](C)[C@@H](O)C/C1=N/NC(C)=O)[C@H](C)C[C@@H]2OC` [JH-FK-05], for which the “BLI, compound-mediated ternary complex formation, 10 μM compound” value in [1] and in assay [2] was “target complexes form in the presence of the analogs with affinities similar to those of the parent compounds” throughout. Further, the MIC was 1 µg/mL (≈ 1.18 µM) in assay [3]; 1 µg/mL (≈ 1.18 µM) in assay [4]; less than 1 µg/mL in assay [5]; more than 8 µg/mL in assay [6]; 2 µg/mL (≈ 2.36 µM) in assay [7]; 1 µg/mL (≈ 1.18 µM) in [8]. Further, the MIC in assay [9] is 1 µg/mL (≈ 1.18 µM); in assay [10] it was more than 8 µg/mL; in assay [11], 1 µg/mL (≈ 1.18 µM); in assay [12], more than 8 µg/mL; in assay [13] it was 1 µg/mL (≈ 1.18 µM); in [14], 1 µg/mL (≈ 1.18 µM). Further, the MIC in assay [15] is 2 µg/mL (≈ 2.36 µM); in assay [16], more than 8 µg/mL; in [17] it was 1 µg/mL (≈ 1.18 µM); in assay [18], 1 µg/mL (≈ 1.18 µM).
